In patent US6420317B1, “Benzoylpyrazoles and their use as herbicides” (Aventis CropScience GmbH, priority 2000, dated 2002):

Columns and labels:
Assay in all cases: Post-emergence herbicidal action on harmful plants (greenhouse)
Type in all cases: in vivo
Conditions in all cases: 50 g a.i./ha, visual scoring after about 3 to 4 weeks
Polygonum convolvulus = tested on: Polygonum convolvulus
Protocol: (§1) 1. Post-emergence herbicidal action on harmful plants
(§2) Seeds of monocotyledonous and dicotyledonous harmful plants are placed in sandy loam soil in cardboard pots, covered with soil and grown in a greenhouse under good growth conditions. Two to three weeks after sowing, the test plants are treated at the three-leaf stage. The compounds according to the invention which were formulated as wettable powders or emulsion concentrate are sprayed, at one of the dosages given in Tables 1 to 5, onto the surface of the green parts of the plants at an application rate of from 600 to 800 1 of water/ha (converted). After the test plants had remained in the greenhouse for about 3 to 4 weeks under optimum growth conditions, the effect of the preparations is scored visually by comparison with compounds disclosed in the prior art. As shown by the results of Comparative Tables 1 to 4, the selected compounds according to the invention have better herbicidal activity against a broad spectrum of economically important monocotyledonous and dicotyledonous harmful plants than the compounds disclosed in the prior art.

Chenopodium album = tested on: Chenopodium album
Protocol: as §1, §2

Stellaria media = tested on: Stellaria media
Protocol: as §1, §2

`Cc1nn(C)c(O)c1C(=O)c1ccc(S(C)(=O)=O)cc1` [Compound S2] was tested, and the “Damage to the harmful plants in % POLCO” value (Polygonum convolvulus) was 10%, the “Damage to the harmful plants in % CHEAL” value (Chenopodium album) was 0% and the “Damage to the harmful plants in % STEME” value (Stellaria media) was 10%.
